# What was measured:
# Format in all cases: in vivo
# [1] = test system: velvetleaf (Abutilon theophrasti); experiment: Test A pre-/postemergence: velvetleaf
# Summary of the method: (§1)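 Each species received preemergence soil-directed spraying and, at the same time, postemergence treatment of seedlings 2–10 cm tall. Formulation: non-phytotoxic solvent mixture including surfactant. Response assessed visually about ten days on, relative to untreated controls, 0–100 scale.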
# [2] = test system: barnyardgrass (Echinochloa crus-galli); experiment: Test A pre-/postemergence: barnyardgrass
# Summary of the method: as §1
# [3] = test system: johnsongrass (Sorghum halepense); experiment: Test C pre-/postemergence: johnsongrass
# Summary of the method: (§2)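 Visual injury scored 0–100 (100 = complete control) against untreated controls after 13–15 greenhouse days. Surfactant-containing solvent formulations applied either to soil after sowing (loam/sand) or over 1- to 4-leaf plants, 2–18 cm tall.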
# rice (Oryza sativa) = experiment: Test B flooded paddy: rice; conditions: Flood; 250 g ai/ha; applied to paddy water at 2-leaf stage; visually evaluated after 13 to 15 days
# Summary of the method: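 2-leaf plants; pots flooded 3 cm over soil; compound added to paddy water, depth kept constant. Greenhouse 13–15 d. Visual rating vs controls, 0–100 scale (100 = complete control); dash = no result.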
# [4] = test system: pigweed (Amaranthus retroflexus); experiment: Test C pre-/postemergence: pigweed
# Summary of the method: as §2
# [5] = test system: winter wheat (Triticum aestivum); experiment: Test C pre-/postemergence: winter wheat
# Summary of the method: as §2
# corn (Zea mays) = experiment: Test A pre-/postemergence: corn
# Summary of the method: as §1
# [6] = test system: chickweed (common chickweed, Stellaria media); experiment: Test C postemergence: chickweed
# Summary of the method: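 Response values are visual ratings, 0 (no effect) to 100 (complete control), made by comparison with untreated controls 13 to 15 days after postemergence treatment of greenhouse-grown potted plants that were 2 to 18 cm high at spraying.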
# [7] = test system: blackgrass (Alopecurus myosuroides); experiment: Test C pre-/postemergence: blackgrass
# Summary of the method: as §2
# wild oat (Avena fatua) = experiment: Test C pre-/postemergence: wild oat; conditions: Postemergence
# Summary of the method: as §2
# [8] = Postemergence, 125 g ai/ha, 0 to 100 scale, 0 is no effect, 100 is complete control
# [9] = Postemergence, 500 g ai/ha, 0 to 100 scale, 0 is no effect, 100 is complete control
# [10] = Preemergence, 125 g ai/ha, 0 to 100 scale where 0 is no effect and 100 is complete control
# [11] = Preemergence, 500 g ai/ha, 0 to 100 scale (0 no effect, 100 complete control)
# [12] = Postemergence, 31 g ai/ha, scale 0 to 100 (0 no effect, 100 complete control)
# [13] = Postemergence, 62 g ai/ha, scale 0 to 100 (0 no effect, 100 complete control)
# [14] = Postemergence, 125 g ai/ha, scale 0 to 100, 0 no effect, 100 complete control
# [15] = Postemergence, 250 g ai/ha, scale 0 to 100 (0 no effect, 100 complete control)
# [16] = Preemergence, 31 g ai/ha, scale 0 (no effect) to 100 (complete control)
# [17] = Preemergence, 62 g ai/ha, scale of 0 to 100, 0 is no effect, 100 is complete control
# [18] = Preemergence, 125 g ai/ha, scale 0 to 100, 0 no effect, 100 complete control
# [19] = Preemergence, 250 g ai/ha, scale 0 to 100, 0 no effect, 100 complete control
# [20] = 31 g ai/ha, scale 0 to 100 (0 no effect, 100 complete control)
# [21] = 62 g ai/ha, scale 0 to 100 (0 no effect, 100 complete control)
# [22] = 125 g ai/ha, scale 0 to 100, 0 no effect, 100 complete control
# [23] = Postemergence, 250 g ai/ha, scale 0 to 100
# [24] = 250 g ai/ha, scale 0 to 100 (0 no effect, 100 complete control)
smiles,measurement,setting,value
CCc1nn(-c2ccc(C(F)(F)F)cc2)nc1Oc1ccnc(C(F)(F)F)c1 [Compound 169],"Plant response rating, Velvetleaf",[1]; [8],100
same,Velvetleaf plant response rating,[1]; [9],100
same,"Plant response rating, Velvetleaf",[1]; [10],50
same,"Plant response rating, Velvetleaf",[1]; [11],90
same,"Plant response rating, Barnyardgrass",[2]; [8],80
same,Barnyardgrass plant response rating,[2]; [9],90
same,"Plant response rating, Barnyardgrass",[2]; [10],80
same,"Plant response rating, Barnyardgrass",[2]; [11],90
same,"Plant response rating, Johnsongrass",[3]; [12],15
same,"Plant response rating, Johnsongrass",[3]; [13],30
same,"Plant response rating, Johnsongrass",[3]; [14],35
same,"Plant response rating, Johnsongrass",[3]; [15],50
same,"Plant response rating, Johnsongrass",[3]; [16],20
same,"Plant response rating, Johnsongrass",[3]; [17],75
same,"Plant response rating, Johnsongrass",[3]; [18],95
same,"Plant response rating, Johnsongrass",[3]; [19],98
same,"Plant response rating, Rice (0 to 100 scale, 0 is no effect, 100 is complete control)",rice (Oryza sativa),55
same,"Plant response rating, Pigweed",[4]; [12],95
same,"Plant response rating, Pigweed",[4]; [13],95
same,"Plant response rating, Pigweed",[4]; [14],100
same,"Plant response rating, Pigweed",[4]; [15],100
same,"Plant response rating, Pigweed",[4]; [16],100
same,"Plant response rating, Pigweed",[4]; [17],100
same,"Plant response rating, Pigweed",[4]; [18],100
same,"Plant response rating, Pigweed",[4]; [19],100
same,"Plant response rating, Wheat",[5]; [12],10
same,"Plant response rating, Wheat",[5]; [13],10
same,"Plant response rating, Wheat",[5]; [14],30
same,"Plant response rating, Wheat",[5]; [15],30
same,"Plant response rating, Wheat",[5]; [16],5
same,"Plant response rating, Wheat",[5]; [17],15
same,"Plant response rating, Wheat",[5]; [18],20
same,"Plant response rating, Wheat",[5]; [19],50
same,"Plant response rating, Corn",corn (Zea mays); [8],10
same,Corn plant response rating,corn (Zea mays); [9],50
same,"Plant response rating, Corn",corn (Zea mays); [10],20
same,"Plant response rating, Corn",corn (Zea mays); [11],20
same,"Plant response rating, Chickweed",[6]; [20],60
same,"Plant response rating, Chickweed",[6]; [21],60
same,"Plant response rating, Chickweed",[6]; [22],95
same,"Plant response rating, Chickweed","[6]; 250 g ai/ha, scale 0 to 100",100
same,"Plant response rating, Blackgrass",[7]; [12],5
same,"Plant response rating, Blackgrass",[7]; [13],15
same,"Plant response rating, Blackgrass",[7]; [14],35
same,"Plant response rating, Blackgrass",[7]; [23],50
same,"Plant response rating, Blackgrass",[7]; [16],80
same,"Plant response rating, Blackgrass",[7]; [17],90
same,"Plant response rating, Blackgrass",[7]; [18],95
same,"Plant response rating, Blackgrass",[7]; [19],95
same,"Plant response rating, Oat, Wild",wild oat (Avena fatua); [20],5
same,"Plant response rating, Oat, Wild",wild oat (Avena fatua); [21],25
same,"Plant response rating, Oat, Wild",wild oat (Avena fatua); [22],30
same,"Plant response rating, Oat, Wild",wild oat (Avena fatua); [24],50
CCCc1nn(-c2ccc(C(F)(F)F)cc2)nc1Oc1ccnc(C(F)(F)F)c1 [Compound 170],"Plant response rating, Velvetleaf",[1]; [8],100
same,Velvetleaf plant response rating,[1]; [9],100
same,"Plant response rating, Velvetleaf",[1]; [10],90
same,"Plant response rating, Velvetleaf",[1]; [11],100
same,"Plant response rating, Barnyardgrass",[2]; [8],90
same,Barnyardgrass plant response rating,[2]; [9],90
same,"Plant response rating, Johnsongrass",[3]; [12],20
same,"Plant response rating, Johnsongrass",[3]; [13],25
same,"Plant response rating, Johnsongrass",[3]; [14],80
same,"Plant response rating, Johnsongrass",[3]; [15],98
same,"Plant response rating, Johnsongrass",[3]; [16],50
same,"Plant response rating, Johnsongrass",[3]; [17],75
same,"Plant response rating, Johnsongrass",[3]; [18],95
same,"Plant response rating, Johnsongrass",[3]; [19],95
same,"Plant response rating, Rice (0 to 100 scale, 0 is no effect, 100 is complete control)",rice (Oryza sativa),60
same,"Plant response rating, Pigweed",[4]; [12],100
same,"Plant response rating, Pigweed",[4]; [13],100
same,"Plant response rating, Pigweed",[4]; [14],100
same,"Plant response rating, Pigweed",[4]; [15],100
same,"Plant response rating, Pigweed",[4]; [16],100
same,"Plant response rating, Pigweed",[4]; [17],100
same,"Plant response rating, Pigweed",[4]; [18],100
same,"Plant response rating, Pigweed",[4]; [19],100
same,"Plant response rating, Wheat",[5]; [12],10
same,"Plant response rating, Wheat",[5]; [13],20
same,"Plant response rating, Wheat",[5]; [14],35
same,"Plant response rating, Wheat",[5]; [15],35
same,"Plant response rating, Wheat",[5]; [16],10
same,"Plant response rating, Wheat",[5]; [17],40
same,"Plant response rating, Wheat",[5]; [18],60
same,"Plant response rating, Wheat",[5]; [19],60
same,"Plant response rating, Corn",corn (Zea mays); [8],30
same,Corn plant response rating,corn (Zea mays); [9],50
same,"Plant response rating, Corn",corn (Zea mays); [10],30
same,"Plant response rating, Corn",corn (Zea mays); [11],40
same,"Plant response rating, Chickweed",[6]; [20],75
same,"Plant response rating, Chickweed",[6]; [21],95
same,"Plant response rating, Chickweed","[6]; 250 g ai/ha, scale 0 to 100",95
same,"Plant response rating, Blackgrass",[7]; [12],10
same,"Plant response rating, Blackgrass",[7]; [13],10
same,"Plant response rating, Blackgrass",[7]; [14],60
same,"Plant response rating, Blackgrass",[7]; [23],70
same,"Plant response rating, Blackgrass",[7]; [16],90
same,"Plant response rating, Blackgrass",[7]; [17],95
same,"Plant response rating, Blackgrass",[7]; [18],100
same,"Plant response rating, Blackgrass",[7]; [19],100
same,"Plant response rating, Oat, Wild",wild oat (Avena fatua); [20],30
same,"Plant response rating, Oat, Wild",wild oat (Avena fatua); [21],65
same,"Plant response rating, Oat, Wild",wild oat (Avena fatua); [22],85
same,"Plant response rating, Oat, Wild",wild oat (Avena fatua); [24],90
CCc1nn(-c2ccc(F)c(F)c2)nc1Oc1ccnc(C(F)(F)F)c1 [Compound 171],"Plant response rating, Velvetleaf",[1]; [8],70
same,Velvetleaf plant response rating,[1]; [9],90
same,"Plant response rating, Velvetleaf",[1]; [10],60
same,"Plant response rating, Velvetleaf",[1]; [11],80
same,"Plant response rating, Barnyardgrass",[2]; [8],80
same,Barnyardgrass plant response rating,[2]; [9],90
same,"Plant response rating, Johnsongrass",[3]; [12],15
same,"Plant response rating, Johnsongrass",[3]; [13],15
same,"Plant response rating, Johnsongrass",[3]; [14],25
same,"Plant response rating, Johnsongrass",[3]; [15],25
same,"Plant response rating, Johnsongrass",[3]; [16],0
same,"Plant response rating, Johnsongrass",[3]; [17],25
same,"Plant response rating, Johnsongrass",[3]; [18],75
same,"Plant response rating, Johnsongrass",[3]; [19],95
same,"Plant response rating, Rice (0 to 100 scale, 0 is no effect, 100 is complete control)",rice (Oryza sativa),60
same,"Plant response rating, Pigweed",[4]; [12],70
same,"Plant response rating, Pigweed",[4]; [13],90
same,"Plant response rating, Pigweed",[4]; [14],90
same,"Plant response rating, Pigweed",[4]; [15],98
same,"Plant response rating, Pigweed",[4]; [16],60
same,"Plant response rating, Pigweed",[4]; [17],100
same,"Plant response rating, Pigweed",[4]; [18],100
same,"Plant response rating, Pigweed",[4]; [19],100
same,"Plant response rating, Wheat",[5]; [12],5
same,"Plant response rating, Wheat",[5]; [13],10
same,"Plant response rating, Wheat",[5]; [14],20
same,"Plant response rating, Wheat",[5]; [15],20
same,"Plant response rating, Wheat",[5]; [16],0
same,"Plant response rating, Wheat",[5]; [17],0
same,"Plant response rating, Wheat",[5]; [18],5
same,"Plant response rating, Wheat",[5]; [19],45
same,"Plant response rating, Corn",corn (Zea mays); [8],20
same,Corn plant response rating,corn (Zea mays); [9],30
same,"Plant response rating, Corn",corn (Zea mays); [10],10
same,"Plant response rating, Corn",corn (Zea mays); [11],30
same,"Plant response rating, Chickweed",[6]; [20],50
same,"Plant response rating, Chickweed",[6]; [21],70
same,"Plant response rating, Chickweed",[6]; [22],95
same,"Plant response rating, Chickweed","[6]; 250 g ai/ha, scale 0 to 100",100
same,"Plant response rating, Blackgrass",[7]; [12],5
same,"Plant response rating, Blackgrass",[7]; [13],10
same,"Plant response rating, Blackgrass",[7]; [14],10
same,"Plant response rating, Blackgrass",[7]; [23],30
same,"Plant response rating, Blackgrass",[7]; [16],5
same,"Plant response rating, Blackgrass",[7]; [17],98
same,"Plant response rating, Blackgrass",[7]; [18],100
same,"Plant response rating, Blackgrass",[7]; [19],100
same,"Plant response rating, Oat, Wild",wild oat (Avena fatua); [20],5
same,"Plant response rating, Oat, Wild",wild oat (Avena fatua); [21],5
same,"Plant response rating, Oat, Wild",wild oat (Avena fatua); [22],10
same,"Plant response rating, Oat, Wild",wild oat (Avena fatua); [24],20
